Data set [1] can be described thus: Thermogravimetry coupled to FTIR (TG-FTIR). It is filed as physicochemical. On the procedure:
Measurements of thermogravimetry coupled to Fourier transform infrared spectroscopy (“TG-FTIR”) were obtained using a Netzsch Thermo-Microbalance TG 209 with a Bruker Vector 22 FT-IR Spectrometer using an aluminum crucible (with micro-hole or open), N2 atmosphere, heating rate of 10° C./min, and temperature range of 25-250° C.

A short description of data set [2]: Desolvation / stability on drying under vacuum.
Procedure: In one experiment, the S2 crystalline solvate was prepared by dissolving the Form II polymorph of 20,23-dipiperidinyl-5-O-mycaminosyl-tylonolide (245.7 mg) in tert-butyl methyl ether (0.5 ml), and slowly evaporating a portion of the solvent at ambient temperature. After no crystals formed, additional tert-butyl methyl ether was added, followed by seeding S2 solvate crystals from the first batch. The solvent was then allowed to evaporate completely. […] In further testing, the crystals were vacuum-dried at ambient temperature for 20 hours, and then dried again under vacuum for 24 hours at about 70° C.
A short description of data set [3]: Dynamic vapor sorption (DVS) water uptake. The settings on record: 25° C.; for maximum water uptake: at 95% relative humidity. It is filed as physicochemical. On the procedure: Dynamic vapor sorption (“DVS”) measurements were obtained with a Projekt Messtechnik SPS11-100n water vapor sorption analyzer. The samples were placed into aluminum crucibles on a microbalance, and allowed to equilibrate at 25° C. and 50% relative humidity before initiating the following pre-defined humidity program at 25° C.: 50-95-0-50% relative humidity, and scanning with a 5% change in relative humidity per hour and with iso-humid equilibration periods at extreme values.

Another data set is described as follows: Solubility in tBME. The data set is classed as physicochemical.
Data set [4] is described as follows: Relative solid-state stability (Applicants' observations). The data set is classed as physicochemical.
The nature of another data set: Thermogravimetry (TG). It is filed as physicochemical. As for the experimental part:
Thermogravimetry (“TG”) measurements were obtained with a Perkin Elmer TGS 2 thermogravimetric analyzer using an aluminum crucible (open), N2 atmosphere, heating rate of 10° C./min, and temperature range of 25-500° C.

Molecules are shown by their SMILES. Counter-ions that a name gives are not always drawn. Like-named read-outs stand apart in the source and are kept apart here.

As to `CC[C@H]1OC(=O)C[C@@H](O)[C@H](C)[C@@H](OC2OC(C)C(O)C(N(C)C)C2O)[C@@H](CCN2CCCCC2)C[C@@H](C)C(=O)/C=C/C(C)=C/[C@@H]1CN1CCCCC1` (stereo in doubt) [diethyl ketone S1 crystalline solvate], the “weight loss due to liberation of solvent” value in data set [1] is recorded as 10%.

For `CC[C@H]1OC(=O)C[C@@H](O)[C@H](C)[C@@H](OC2OC(C)C(O)C(N(C)C)C2O)[C@@H](CCN2CCCCC2)C[C@@H](C)C(=O)/C=C/C(C)=C/[C@@H]1CN1CCCCC1` (stereo in doubt) [ethyl formate crystalline solvate], in data set [1], the “temperature at which desolvation was nearly completed” value is around 130 °C and the “weight loss due to liberation of solvent” value was “about 7.7%”.

For `CC[C@H]1OC(=O)C[C@@H](O)[C@H](C)[C@@H](OC2OC(C)C(O)C(N(C)C)C2O)[C@@H](CCN2CCCCC2)C[C@@H](C)C(=O)/C=C/C(C)=C/[C@@H]1CN1CCCCC1` (stereo in doubt) [ethanol S1 crystalline solvate], the “weight loss due to liberation of solvent” value in data set [1] (up to 200° C.) is listed as “approximately 6.6%”.

In the case of `CC[C@H]1OC(=O)C[C@@H](O)[C@H](C)[C@@H](OC2OC(C)C(O)C(N(C)C)C2O)[C@@H](CCN2CCCCC2)C[C@@H](C)C(=O)/C=C/C(C)=C/[C@@H]1CN1CCCCC1` (stereo in doubt) [ethyl acetate S1 crystalline solvate], the “result of vacuum drying” value in data set [2] (ambient temperature) is “readily converted into the Form III polymorph”. In addition, in data set [1], the “weight loss due to liberation of solvent” value is recorded as “approximately 4.1%”.

On to `CC[C@H]1OC(=O)C[C@@H](O)[C@H](C)[C@@H](OC2OC(C)C(O)C(N(C)C)C2O)[C@@H](CCN2CCCCC2)C[C@@H](C)C(=O)/C=C/C(C)=C/[C@@H]1CN1CCCCC1` (stereo partly shown) [methyl acetate crystalline solvate], for which, in data set [1], the “temperature at which desolvation was nearly completed” value is around 160 °C and the “weight loss due to liberation of solvent” value is “about 8.4%”.

`CC[C@H]1OC(=O)C[C@@H](O)[C@H](C)[C@@H](OC2OC(C)C(O)C(N(C)C)C2O)[C@@H](CCN2CCCCC2)C[C@@H](C)C(=O)/C=C/C(C)=C/[C@@H]1CN1CCCCC1` (stereo in doubt) [Form II polymorph]: the maximum water uptake result in data set [3] is listed as “about 2 % (by weight)”. Moreover, in data set [1], the “temperature at which decomposition began” value is “greater than 220 °C”. Besides, in data set [1] (mainly in the temperature range of from 50 to 100° C., attributed to water loss), the weight loss is recorded as 0.7%.

With `CC[C@H]1OC(=O)C[C@@H](O)[C@H](C)[C@@H](OC2OC(C)C(O)C(N(C)C)C2O)[C@@H](CCN2CCCCC2)C[C@@H](C)C(=O)/C=C/C(C)=C/[C@@H]1CN1CCCCC1` (stereo in doubt) [tBME S2 crystalline solvate], the “weight loss due to liberation of solvent” value in data set [1] is 8.7-10%. Moreover, the solubility (commonly the dissolved amount per volume that the medium holds) in the data set “Solubility in tBME” (organic solvent or mixture) fell in the range of 40 to 50 mg/mL. The “solubility in tBME relative to the Form II polymorph” value in the data set “Solubility in tBME” (solvent tBME) is “at least one order of magnitude less”.

On to `CC[C@H]1OC(=O)C[C@@H](O)[C@H](C)[C@@H](OC2OC(C)C(O)C(N(C)C)C2O)[C@@H](CCN2CCCCC2)C[C@@H](C)C(=O)/C=C/C(C)=C/[C@@H]1CN1CCCCC1` (stereo partly shown) [tBME S2 crystalline solvate], for which the “stability relative to other solid-state forms” value in data set [4] (listed as tBME crystalline solvate) is given as “more stable than the ethyl acetate S1 crystalline solvate”. In data set [2] (60° C. at 1 mbar (absolute) for 1 day), the stability result is on record as “exhibits stability”. In data set [2] (ambient temperature and 70° C.), the “result of drying under vacuum” value was “no loss of solvent was observed”.

Turning to `CC[C@H]1OC(=O)C[C@@H](O)[C@H](C)[C@@H](OC2OC(C)C(O)C(N(C)C)C2O)[C@@H](CCN2CCCCC2)C[C@@H](C)C(=O)/C=C/C(C)=C/[C@@H]1CN1CCCCC1` (stereo in doubt) [THF S3 crystalline solvate], the “weight loss due to liberation of solvent” value in data set [1] (at temperatures greater than 100° C.) is “about 8.1%”.

For the compound `CC[C@H]1OC(=O)C[C@@H](O)[C@H](C)[C@@H](OC2OC(C)C(O)C(N(C)C)C2O)[C@@H](CCN2CCCCC2)C[C@@H](C)C(=O)/C=C/C(C)=C/[C@@H]1CN1CCCCC1` (stereo in doubt) [Form I polymorph], the maximum water uptake result in data set [3] is recorded as “less than 1 % (by weight)”. Moreover, the “stability relative to other solid-state forms” value in data set [4] is “greater stability at ambient temperature than the other above-listed solid-state forms”. Further, in data set [1] (temperature range of from 60 to 180° C., attributed to water loss), the weight loss amounted to 0.6%.

With `CC[C@H]1OC(=O)C[C@@H](O)[C@H](C)[C@@H](OC2OC(C)C(O)C(N(C)C)C2O)[C@@H](CCN2CCCCC2)C[C@@H](C)C(=O)/C=C/C(C)=C/[C@@H]1CN1CCCCC1` (stereo in doubt) [Form III polymorph], the water uptake entry in data set [3] (between 70 and 85% relative humidity) was “about 6%”. Besides, the “temperature at which decomposition began” value in the data set “Thermogravimetry (TG)” is “greater than 270 °C”. The weight loss entry in “Thermogravimetry (TG)” (up to 200° C.) is “less than 0.05%”; in data set [1] (up to 220° C., most between 50 and 120° C.), 1.7%.

The values above are taken from US8227429B2, “Macrolide synthesis process and solid-state forms” (Intervet International B.V., priority 2006, dated 2012).
